The source of these data is US6113907A, “Pharmaceutical grade St. John's Wort” (priority 1997, dated 2000).

In general, Ki refers to the dissociation constant of the complex between target and ligand, obtained from inhibition or displacement. The term Kd denotes the equilibrium constant for the complex coming apart.

Each structure is given as a SMILES string. Several values for one entry are separate records, joined by “and”; a condition that tells them apart may be missing. Identical values can stand only once. Counter-ions that a name gives are not always drawn. Like-named read-outs stand apart in the source and are kept apart here.

The target of data set [1] is T1, serotonin transporter (Rattus norvegicus, UniProt P31652).
T1 construct: Cerebral cortical membranes derived from male Wistar rats; from tissue; host or cells: cerebral cortical membranes of male Wistar rats
T1 sequence (P31652 whole entry): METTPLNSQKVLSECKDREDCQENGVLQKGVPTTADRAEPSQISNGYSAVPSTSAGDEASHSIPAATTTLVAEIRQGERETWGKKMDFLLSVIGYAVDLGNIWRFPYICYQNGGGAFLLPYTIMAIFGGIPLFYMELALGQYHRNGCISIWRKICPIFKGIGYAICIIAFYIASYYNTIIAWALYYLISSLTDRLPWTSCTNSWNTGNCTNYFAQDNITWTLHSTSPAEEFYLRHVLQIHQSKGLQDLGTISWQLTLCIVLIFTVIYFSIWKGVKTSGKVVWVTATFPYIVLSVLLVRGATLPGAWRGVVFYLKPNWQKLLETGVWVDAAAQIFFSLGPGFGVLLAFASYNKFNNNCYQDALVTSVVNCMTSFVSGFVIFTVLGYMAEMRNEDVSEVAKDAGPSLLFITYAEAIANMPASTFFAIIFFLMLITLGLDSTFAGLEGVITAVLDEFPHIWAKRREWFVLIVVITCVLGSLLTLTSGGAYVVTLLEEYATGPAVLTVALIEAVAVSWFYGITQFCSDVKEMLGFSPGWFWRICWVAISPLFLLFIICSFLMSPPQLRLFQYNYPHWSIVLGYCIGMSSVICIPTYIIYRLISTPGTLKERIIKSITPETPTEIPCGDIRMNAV
Particulars: cited from earlier work.

The conditions of data set [2]: oil preparations, exposed to light; cited from earlier work.
Data set [3] deals with T1, serotonin transporter. Briefly: serotonin transporter assay, [125I]-RTI-121, rat cerebral cortical membranes. The data set is classed as binding.
A further data set has as its target GABAA receptor. To be noted: read-out: Ki(nM) GABAA reference compounds; cited from earlier work.
In data set [4] the target is glutamate receptor, NMDA agonist site. Particulars: cited from earlier work.
The next data set has as its target Monoamine Oxidase A. To be noted: read-out: Inhibition of Monoamine Oxidase A Activity IC50; cited from earlier work.
A further data set concerns the target monoamine oxidase B. Briefly: MAO-B enzyme activity, rat liver mitochondrial fraction, [3H]dopamine. Particulars: read-out: MAOB (concentration). It counts as biochemical. As to the method: MAO-B enzyme activity is assayed in a mitochondrial fraction isolated from rat liver by differential centrifugation. […] Following 20 minutes incubation at 37° C., the reaction is terminated by the addition of 5% HCl. The radioactivity of [^3 H]dopamine in an extraction was determined.

The subject of a further data set is adenosine receptor. The data set can be described thus: adenosine receptor non-selective (ADNS), [3H] NECA, bovine striatal membranes. The data set is classed as binding. Particulars: for ADNS: 10^-4, 60 min, 100 µM. The procedure: To determine the inhibitory activity of the substances for the dopamine receptor (dp) the following assay was preformed. A partial receptor preparation was prepared from bovine striatal membranes using [^3 H] spiperone as the ligand at a final concentration of 0.3 nM. To determine non-specific binding cold spiperone was tested at 1 μM. The reactions were carried out in 50 mM Tris-HCl (pH 7.7) containing 120 mM NaCl, 5 mM KCl, 2 mM CaCl2 and 1 mM MgCl2 at 37° C. for 60 minutes. […] The inhibitory properties of the substances for binding of ligand to the adenosine receptor (ADNS) was measured using a partially purified receptor preparation made from bovine striatal membranes. The radioligand used was [^3 H] 5'-N-ethylcarboxyamidoadenosine (NECA) at a final ligand concentration of 4 nM. Non-specific binding was determined in the presence of 10 μM NECA. The reactions were carried out in 50 mM Tris-HCL (pH 7.7) for 60 minutes at 25° C. […] To measure the inhibitory activity of the substances for the opiate receptor (Opiate) receptor was partially purified from rat forebrains. [^3 H] naloxone at 1 nM as the ligand used. Non-specific binding was determined in the presence of 1 μM of naloxone. The assays were carried out in 50 mM Tris-HCl (pH 7.4) at 25° C. for 90 minutes. […] The neuronal nicotinic receptor (Nicotinic Neuronal) was assayed using receptors partially purified from rat cortical membranes. The radioligand used was [^3 H] N-methylcarbamylcholine iodide at a final ligand concentration of 5 nM. Non-specific binding was determined in the presence of 1 μM nicotine sulfate. The assay reactions were carried out in 50 mM Tris-HCl (pH 7.4) containing 120 mM NaCl, 5 mM KCl, 2 mM CaCl2, 1 mM MgCl2, and 3 μM atropine sulfate at 4° C. for 60 minutes. […] To determine how the substances inhibit the corticotropin releasing factor (CRF) partially purified receptor from rat cortical membranes was used as the receptor preparation. […] Tyr-° CRF at a final ligand concentration of 0.1 nM. Non-specific binding was determined in the presence of 1 μM Tyr-° CRF. The reactions were carried out in 50 mM HEPES containing 10 mM MgCl2, 2 mM EGTA, 0.12 TIU/ml aprotinin and 0.3% BSA at 25° C. for 120 minutes. The reaction is terminated by centrifugation in a Sorvall centrifuge for 15 minutes at 4° C.

The test system of data set [5] is muscarinic receptor for the central nervous system. The data set can be described thus: muscarinic receptor for the central nervous system (M1 Central), [3H] QNB, rat cortical membranes. The data set is classed as binding. To be noted: 10^-4; 100 µM. As to the method: Fourteen additional bioassays were preformed on either extracts, fractions or reference compounds for this botanical. To measure inhibition of [^3 H] PK11195 to the benzodiazepine receptor (BDZ) a partially purified receptor preparation was made from rat kidney membranes. The final radioactive ligand concentration was 1 nM and non-specific binding was measured using 200 nM cold PK11195. The substances, receptor and ligand were reacted in 50 mM Tris-HCL (pH 7.7) at 0-4° C. for 60 minutes. The reaction was terminated by rapid filtration of the samples through glass fiber filters. […] The inhibition of [^3 H] pinrenzepine to the muscarinic M1 receptor (M1) by the substances was measured using a partially purified receptor from bovine striatal membranes. The final hot ligand concentration was 1 nM and non-specific binding was determined in the presence of 100 nM atropine. […] The reactions were terminated by rapid vacuum filtration of the reaction mixture through glass fiber filters. […] To assay for biological activity for the muscarinic receptor for the central nervous system, receptor was partially purified from rat cortical membranes. […] Non-specific binding was determined in the presence of 100 nM atropine. […] Non-specific binding was determined using 1 mM NMDA. […] Non-specific binding was determined using 100 μM AMPA.

The target in a further data set is T2, MAOA (Rattus norvegicus, UniProt P21396).
T2 sequence (P21396 1-526): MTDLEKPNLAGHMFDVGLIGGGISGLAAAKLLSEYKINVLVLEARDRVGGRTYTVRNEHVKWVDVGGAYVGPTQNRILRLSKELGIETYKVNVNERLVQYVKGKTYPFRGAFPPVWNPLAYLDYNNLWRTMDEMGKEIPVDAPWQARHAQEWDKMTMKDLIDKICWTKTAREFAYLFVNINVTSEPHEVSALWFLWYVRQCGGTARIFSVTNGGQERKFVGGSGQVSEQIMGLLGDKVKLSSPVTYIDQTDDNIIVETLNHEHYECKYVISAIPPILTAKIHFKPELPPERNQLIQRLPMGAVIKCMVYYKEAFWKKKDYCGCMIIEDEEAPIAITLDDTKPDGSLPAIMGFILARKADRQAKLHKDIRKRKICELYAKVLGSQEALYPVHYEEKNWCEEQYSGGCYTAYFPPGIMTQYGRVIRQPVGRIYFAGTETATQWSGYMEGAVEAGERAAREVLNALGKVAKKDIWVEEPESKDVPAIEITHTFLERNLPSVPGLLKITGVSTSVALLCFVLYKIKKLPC
The data set can be described thus: MAOA enzymatic activity, rat liver mitochondrial membranes, [14C] serotonin. More on the design: using rat liver mitochondrial membranes as a partially purified enzyme source; from tissue; host or cells: rat liver mitochondrial membranes. It counts as biochemical. As to the method:
The inhibition of MAOA enzymatic activity (MAOA) was determined using rat liver mitochondrial membranes as a partially purified enzyme source. […] The reaction involves the conversion of the substrate to [^14 C] 5-hydroxyl indoleacetaldehyde+NH4^+. In brief, the enzyme is preincubated with the substances and the subtype specific blocker deprenyl (at 300 nM) for 60 minutes at 37° C. in 100 mM KPO4 (pH 7.2). Substrate is added and incubated for an additional 10 minutes. The reaction is terminated by the addition of 0.5 ml of 2M citric acid. […] Nitric oxide synthetase activity was measured using a binding assay (NOS). The receptors were made by partial purification of material from rat brain membranes. The radioligand used was [^3 H] L-N^G -Nitro-Arginine (NOARG) at a final concentration of 5 nM. Non-specific binding was determined using 100 μM of NOARG. The assay reactions were carried out in 50 mM Tris-HCl (pH 7.4) for 60 minutes at 25° C.

Another data set concerns β-adrenergic receptors. Particulars: rat frontal cortex, subchronic (250 mg/kg for 2 weeks; imipramine similar doses); cited from earlier work.
A short description of the next data set: stability. The data set is classed as physicochemical. To be noted: our data. The text has this:
Some botanicals, such as St. John's Wort, are both temperature and light sensitive. For this type of botanical the material should be dry packed with a refrigerant or shipped under refrigeration and protected from light and air. […] Stability (in absence of air) was increased to six months in a preparation extracted with ethanol.
Phloroglucinola include hyperforin (prenylated derivative of phloroglucinol), adhyperforin (similar to the bitter principle of hops, adhumulone).

The subject of another data set is herpes simplex. Particulars: cited from earlier work.
The test system of data set [6] is human immunodeficiency virus type 1 (HIV-1). Particulars: cited from earlier work.
The test system of the next data set is murine cytomegalovirus. Particulars: cited from earlier work.
In another data set the test system is Sindbis virus. To be noted: cited from earlier work.
In data set [7] the test system is equine infectious anemia virus. To be noted: cited from earlier work.
For the next data set, the target named is protein kinase C. To be noted: cited from earlier work.

Take `O=[N+]([O-])c1ccc2nc(N3CCNCC3)ccc2c1` [6-NO-Quipazine]: at serotonin transporter [1] (Reference Data), the IC50 was 3400 nM and the nH is given as 0.7400.
As to `CCC(C)C(=O)[C@]12C(=O)[C@](CC=C(C)C)(C[C@H](CC=C(C)C)[C@@]1(C)CCC=C(C)C)C(=O)C(CC=C(C)C)=C2O` (stereo partly shown) [Adhyperforin, adhyperforin], the degradation time in data set [2] was 14 days.
On to `O=c1c(O[C@@H]2O[C@H](CO)[C@H](O)[C@H](O)[C@H]2O)c(-c2ccc(O)c(O)c2)oc2cc(O)cc(O)c12` [Hyperoside, hyperoside], for which the “5-HT Reuptake (Table 8, words)” value at serotonin transporter [3] is “Negative”.
Take `O=C(O)C1=CCNCC1` [Isoguvacine]: the Ki on GABAA receptor is 9.5 nM.
Take `O=c1c2cc(O)c(O)cc2oc2cc(O)c([C@@H]3O[C@H](CO)[C@@H](O)[C@H](O)[C@H]3O)c(O)c12` [Magniferin, mangiferin]: the “5-HT Reuptake (Table 8, words)” value on serotonin transporter [3] is given as “Negative”.
In the case of `NCc1cc(=O)[nH]o1` [Muscimol], at GABAA receptor, the Ki is 4.4 nM.
Consider `CN[C@H](CC(=O)O)C(=O)O` [NMDA, N-methyl-D-aspartic acid], for which, in [4] (read-out: Ki(nM) NMDA reference compounds), the Ki is 9300 nM.
In the case of `Cc1ccc2c(c1)c1c3n2CCNC3CCC1` (stereo not shown) [Pirlindole Mesylate], the IC50 at Monoamine Oxidase A is 16 nM.
On to `O=c1c(O)c(-c2ccc(O)c(O)c2)oc2cc(O)cc(O)c12` [Quercetin, quercetin], for which the IC50 at monoamine oxidase B is 2400 nM; on MAOA (read-out: MAOA (concentration)), 8200 nM. The “5-HT Reuptake (Table 8, words)” value on serotonin transporter [3] was “Negative”. Moreover, the ADNS with adenosine receptor is 45% and 27%. Besides, in [5], the “M1 Central” value amounted to 27%. The “MAOA (Table 8, words)” value on MAOA is reported as “verified the MAOA activity”.
With `C[C@@H]1O[C@@H](Oc2c(-c3ccc(O)c(O)c3)oc3cc(O)cc(O)c3c2=O)[C@H](O)[C@H](O)[C@H]1O` [Quercitrin, quercitrin], the “5-HT Reuptake (Table 8, words)” value at serotonin transporter [3] is “Negative”. The inhibition at 100 µM on serotonin transporter [3] (10^-4, read-out: Sero) stood at 39%; on serotonin transporter [3] (10^-4 M, read-out: Sero % inhibition (PharmaPrint range)) it was 40 ± 20%. Besides, the ADNS in the data set on adenosine receptor was found to be 45%. The “AD,NS % inhibition (PharmaPrint range)” value with adenosine receptor (10^-4 M) was 45 ± 20%.
Take `c1ccc2nc(N3CCNCC3)ccc2c1` [Quipazine maleate]: the nH on serotonin transporter [1] (Reference Data) is given as 0.8550.
Take `C[C@@H]1O[C@@H](OC[C@H]2O[C@@H](Oc3c(-c4ccc(O)c(O)c4)oc4cc(O)cc(O)c4c3=O)[C@H](O)[C@@H](O)[C@@H]2O)[C@H](O)[C@H](O)[C@H]1O` [Rutin, rutin]: on serotonin transporter [3], the “5-HT Reuptake (Table 8, words)” value was “Negativee”.
With `O=c1[nH]oc2c1CCNC2` [THIP, 4,5,6,7Tetrahydroisoxazolo[5,4c]pyridin3(2H)one], the Ki at GABAA receptor was 25.1 nM.
On to `c1cc2c(cc1C1CCCCC1)c1c3n2CCNC3CCC1` (stereo not shown) [Tetrindole Mesylate], for which the IC50 on Monoamine Oxidase A was 46 nM.
Consider `CCCC(=CC(N)C(=O)O)CP(=O)(O)O` (stereo not shown) [[^3 H]-CGP 39653], for which the Kd in data set [4] (radioligand, read-out: KD (binding affinity)) is 7 nM.
With `CC(C)OC(=O)[C@H]1[C@@H](c2ccc([125I])cc2)C[C@@H]2CC[C@H]1N2C` [[^125 I]-RTI-121], at serotonin transporter [1] (radioligand), the Kd is 1.1 nM.
Regarding `CN(C)CCCN1c2ccccc2CCc2ccccc21` [imipramine], in the data set on β-adrenergic receptors, the “down-regulation of β-adrenergic receptors” value is on record as 25%.
As to `Cc1cc(O)c2c(=O)c3c(O)cc(O)c4c5c(O)cc(O)c6c(=O)c7c(O)cc(CO)c8c1c2c(c34)c(c65)c78` [pseudohypericin], the stability in solution result in the data set “stability” is “unstable in solution”. Further, the “inhibition of herpes simplex” value with herpes simplex is on record as “inhibit”. In data set [6], the “inhibition of HIV-1” value is given as “inhibit”. Besides, in the data set on murine cytomegalovirus, the “activity against murine cytomegalovirus” value is reported as “Activity has also been reported”. Further, the “activity against Sindbis virus” value in the data set with Sindbis virus is “Activity has also been reported”. Also, in data set [7], the “activity against equine infectious anemia virus” value is given as “Activity has also been reported”. Further, the “protein kinase C IC50” value on protein kinase C is 15 µg/mL.
